Values after ≈ are worked out from the molar mass of the structure shown. Values joined by “and” are separate entries in the source; they are usually repeats but may differ in a detail not shown here. Identical values can stand only once. Like-named read-outs stand apart in the source and are kept apart here.
What was measured:
[1] = Half-cell cyclic voltammetry of quinones, E^0 (Example 13); type: physicochemical; settings: 1 mM in 1 M sulfuric acid, pH 0, glassy carbon, 25 mV/s
Procedure: 1 mM solutions of the quinones listed in the following table were prepared in 1 M sulfuric acid solution. The pH of the solutions was 0. Half-cell electrochemical data were recorded using a working electrode consisting of a flat 3 mm diameter disk of glassy carbon, a coiled platinum wire as a counter electrode, and a Ag/AgCl reference electrode. Cyclic voltammograms were recorded using sweep rates of 25 mV/s.

[2] = Cyclic voltammetry of AQDS on glassy carbon (Example 3); type: physicochemical; settings: 1 mM in 1 M sulfuric acid, glassy carbon disc
Source text: AQDS was subjected to half-cell electrochemical measurements. […] The peak separation of 34 mV was close to the 59 mV/n, where n was the number of electrons involved, expected for a two-electron process.

[3] = Rotating disk electrode measurements of AQDS (Example 4); type: physicochemical
Procedure: FIG. 5B is a graph of rotating disk electrode measurements using a glassy carbon electrode in 1 M H2SO4 at eleven rotation rates ranging from 200 (red) to 3600 rpm (dk. green).
FIG. 6 is a Levich plot (current vs. rotation rate) of 1 mM AQDS in 1 M H2SO4. Best fit line has a slope of 0.453(2) μA s^1/2 rad^−1/2.
FIG. 7 is a Koutecký-Levich plot (current^−1 vs. rotation rate^−1/2).
FIG. 8 is a Tafel plot (overpotential vs. log(current)) constructed using the current response in the absence of mass-transport at low overpotentials, extrapolated from the zero-intercept of FIG. 7 (infinite rotation rate). Best fit line is the function y=62(x+4.32). This yields α=0.474(2) and k0=7.2(5)×10^−3 cm s^−1.
The glassy carbon disk in Example 3 was rotated at a variety of rates yields mass-transport limited currents from which the AQDS diffusion coefficient (D=3.8(1)×10^−6 cm^2 s^−1)(compare D in [38]) and kinetic reduction rate constant could be determined (FIGS. 5B, 6, 7, and 8). […] This rate constant was faster than that found for many other species used in flow cells such as V^3+/V^2+, Br2/Br^−, and S4^2−/S2^2− (see Table 2 in [40]). The electrochemical reversibility of the two-electron redox reaction was confirmed by the slope of the Tafel plot (FIG. 8), which gave the transfer coefficient α=0.474, which is close to the value of 0.5 expected for an ideally reversible reaction.

[4] = Pourbaix diagram of AQDS redox couple vs. pH (Example 5); type: physicochemical
Procedure: FIG. 5C is a Pourbaix diagram of AQDS. Solid lines indicate slopes of −59 mV/pH, −30 mV/pH, and 0 mV/pH, corresponding to two-, one-, and zero-proton processes respectively. Dashed lines linearly extrapolate the one- and zero-proton processes to give E^0 values of 18 mV (2 e^−/1 H^+) and −296 mV (2 e^−/0 H^+).
To further understand the AQDS redox behavior, we generated a Pourbaix diagram (FIG. 5C) of the equilibrium potential of the AQDS redox couple vs. pH. Aqueous 1 mM solutions of AQDS disodium salt were prepared and pH buffered using the following chemicals: sulfuric acid (1 M, pH 0), HSO4^−/SO4^2− (0.1 M, pH 1-2), AcOH/AcO^− (0.1 M, pH 2.65-5), H2PO4^−/HPO4^2− (0.1 M, pH 5.3-8), HPO4^2−/PO4^3− (0.1 M, pH 9.28-11.52), and KOH (0.1 M, pH 13). The pH of each solution was adjusted with 1 M H2SO4 or 0.1 M KOH solutions. […] In more basic conditions (7<pH<11), a two-electron, one-proton process occurred, giving a 30 mV/pH slope. The potential became pH-independent at values greater than 11, which indicated a two-electron, zero-proton process.

Aqueous solubility = type: physicochemical; settings: pH 0, aqueous buffer
[5] = Stability of AQDS to Br2 / HBr by NMR (Example 12); type: physicochemical; settings: for stability to 2 M / concentrated HBr and Br2: heated to 100° C. for 48 h (two days)
Procedure: 50 mg of 9,10-anthraquinone-2,7-disulfonic acid was dissolved in 0.4 mL of D2O was treated with 100 μL of Br2. The ^1H and ^13C NMR spectra (FIGS. 17A-B and 18A-B) were unchanged from the starting material after standing for 20 hours at 25° C. 50 mg of AQDS was then treated with 1 mL of concentrated HBr and 100 μL of Br2. The reaction was heated to 100° C. for 48 h and evaporated to dryness at that temperature. The resulting solid was fully dissolved in D2O giving unchanged and ^1H and ^13C NMR (FIGS. 17C and 18C); however, the ^1H NMR reference was shifted due to residual acid.

[6] = Half-cell cyclic voltammetry compared with AQDS (Examples 6 and 7); type: physicochemical; settings: 1 mM in 1 M H2SO4; listed as 1,8-(OH)2-AQDS
[7] = cited from earlier work
[8] = Stability of quinone form in aqueous solution, cyclic voltammetry of catechol (Example 1); type: physicochemical; settings: 1 N H2SO4
Source text: 1 molal 1,2-ortho-benzohydroquinone (catechol) was oxidized in 1 N H2SO4 at a flat Pt electrode, obtaining the cyclic voltammetry curves shown in FIG. 3A. The sweep starts at (0.2 V, 0 mA/cm^2) and proceeds at 25 mV/s to the right. At about 600 mV vs. Ag/AgCl (the known E^0 is 795 mV vs. SHE), the current density increases as catechol is oxidized to the orthoquinone form. The oxidative current density peaks at about 150 mA/cm^2. The peak and downturn are caused by reactant depletion in a quiescent (non-flowing, non-stirred) electrolyte. In a test at a higher concentration of 3.9 molal (FIG. 3B), we observe asymmetric oxidation and reduction peaks, achieving current densities above 500 mA/cm^2 for the former. The asymmetric shape of the curve in FIG. 3B arises because the quinone form is unstable in aqueous solution. In addition the limited solubility of ortho-benzoquinone (0.06 M) compared to its reduced form precludes symmetric behavior at high concentration.

[9] = aqueous, no source given; cited from earlier work

Row | Compound | Standard Reduction Potential E^0 in Volts vs. the standard hydrogen electrode (SHE) [1] [Volts] | further results
1 | 2-bromo-1,4-naphthoquinone-3-sulfonic acid [Entry 14] | 0.371 | 
2 | O=C1c2ccc(S(=O)(=O)O)cc2C(=O)c2cc(S(=O)(=O)O)ccc21 [Entry 1, 9,10-anthraquinone-2,7-disulfonic acid] | 0.213 | peak separation (cyclic voltammetry) [2]: 34 mV; diffusion coefficient D ([3]; 1 mM in 1 M H2SO4, rotating glassy carbon disk): 3.8(1)×10^−6 cm^2 s^−1; kinetic reduction rate constant k0 ([3]; reduction on glassy carbon, 1 M H2SO4): 7.2(5)×10^−3 cm s^−1; E^0 (2 e^−/1 H^+), extrapolated ([4]; linear extrapolation of one-proton process): 18 mV; E^0 (2 e^−/0 H^+), extrapolated ([4]; linear extrapolation of zero-proton process): −296 mV; solubility (Aqueous solubility): ~1000 mM (≈ 368 mg/mL); stability to 2 M / concentrated HBr and Br2 [5]: no reaction; stability to 2 M / concentrated HBr and Br2 ([5]; listed as 9,10-anthraquinone-2,7-disulfonate): stable; stability to Br2 (1H and 13C NMR spectra) ([5]; in D2O, 20 hours at 25° C.): unchanged
3 | O=C1c2ccc(S(=O)(=O)O)cc2C(=O)c2ccc(S(=O)(=O)O)cc21 [Entry 2, 9,10-anthraquinone-2,6-disulfonic acid] | 0.212 | 
4 | O=C1c2cccc(S(=O)(=O)O)c2C(=O)c2c1cccc2S(=O)(=O)O [Entry 3, 9,10-anthraquinone-1,8-disulfonic acid] | 0.182 | 
5 | O=C1c2cccc(S(=O)(=O)O)c2C(=O)c2cccc(S(=O)(=O)O)c21 [Entry 4, 9,10-anthraquinone-1,5-disulfonic acid] | 0.223 | 
6 | O=C1c2ccccc2C(=O)c2cc(S(=O)(=O)O)ccc21 [Entry 5, 9,10-anthraquinone-2-sulfonic acid] | 0.171 | 
7 | O=C1c2ccccc2C(=O)c2cc(CS(=O)(=O)O)c(CS(=O)(=O)O)cc21 [Entry 6, 9,10-anthraquinone-2,3-dimethanesulfonic acid] | 0.114 | 
8 | O=C1c2ccc(S(=O)(=O)O)c(O)c2C(=O)c2c1ccc(S(=O)(=O)O)c2O [Entry 7, 1,8-dihydroxy-9,10-anthraquinone-2,7-disulfonic acid] | 0.118 | lowering of reduction potential relative to AQDS [6]: ~100 mV and 95 mV
9 | O=C1c2ccc(S(=O)(=O)O)c(O)c2C(=O)c2ccc(S(=O)(=O)O)c(O)c21 [Entry 8, 1,5-dihydroxy-9,10-anthraquinone-2,6-disulfonic acid] | 0.116 | 
10 | O=C1c2ccccc2C(=O)c2c(O)c(S(=O)(=O)O)cc(O)c21 [Entry 9, 1,4-dihydroxy-9,10-anthraquinone-2-sulfonic acid] | 0.094 | 
11 | O=C1c2ccccc2C(=O)c2c(O)c(S(=O)(=O)O)c(O)c(O)c21 [Entry 10, 1,3,4-trihydroxy-9,10-anthraquinone-2-sulfonic acid] | 0.088 | 
12 | O=C1C=C(S(=O)(=O)O)c2ccccc2C1=O [Entry 11, 1,2-naphthoquinone-4-sulfonic acid] | 0.423 | 
13 | O=C1C=C(S(=O)(=O)O)C(=O)c2ccccc21 [Entry 12, 1,4-naphthoquinone-2-sulfonic acid] | 0.356 | 
14 | O=C1C(Cl)=C(S(=O)(=O)O)C(=O)c2ccccc21 [Entry 13, 2-chloro-1,4-naphthoquinone-3-sulfonic acid] | 0.368 | 
15 | Oc1ccccc1O [catechol, 1,2-ortho-benzohydroquinone] |  | known E^0 ([7]; vs. SHE): 795 mV
16 | O=C1C=CC=CC1=O [ortho-benzoquinone] |  | stability in aqueous solution [8]: unstable; solubility [9]: 60 mM (≈ 6.49 mg/mL)
17 | CC1=C(C)C(=O)C(C)=C(C)C1=O [tetramethylbenzoquinone] |  | redox potential ([7]; aqueous, literature values [28], [29]): 0.040 V and 0.068 V

From patent publication US9966622B2, “Small organic molecule based flow battery” (President and Fellows of Harvard College, priority 2012, dated 2018)
